Tests used:
[1] = cited from earlier work
[2] = tested on: PCP site of the NMDA receptor; settings: (S)- versus (R)-ketamine; cited from earlier work
[3] = Subject's earlier response to sedative/analgesic drugs (medical history); settings: child, around adenoid removal
[4] = tested on: Childhood-Onset Bipolar Disorder With FOH; experiment: Ketamine treatment of childhood-onset bipolar disorder with FOH (single-subject case report); format: in vivo, human; settings: 2 intranasal puffs of ketamine
Excerpt: Subject is a child referred by their parents for psychiatric care to address their intense and often violent rages.
Subject has had episodic rages that have escalated in frequency and intensity since their adoption at 18 months. They have always experienced extreme separation anxiety but their aggression has shifted from themself toward their parents since starting school. The abuse towards their parents has included hitting, kicking, biting, and propelling objects. Parents came for consultation for fear that Subject will become more dangerous as they age.
Subject is currently on seroquel—225 mg (50 mg time release mornings, 25 mg afternoon, 150 mg time release evenings), lithium 600 mg (300 mg mornings and evenings), and 2 intranasal puffs of ketamine.

[5] = cited from earlier work; remark: listed apart in the source

## CN[C@@]1(c2ccccc2Cl)CCCCC1=O [(R)-ketamine]
[1]; in vivo
  hallucinogenic effect: hallucinogenic

## CN[C@]1(c2ccccc2Cl)CCCCC1=O [(S)-ketamine]
[2]
  affinity for the PCP site of the NMDA receptor relative to (R)-ketamine: about four
[1]; comparison of enantiomers
  induction of drowsiness: more strongly than the (R) enantiomer

## Cc1ncc2n1-c1ccc(Cl)cc1C(c1ccccc1F)=NC2 [Versid]
[3]
  response of subject to drug (medical history): extreme hyperactivity instead of relaxation

## CNC1(c2ccccc2Cl)CCCCC1=O (stereo not drawn) [ketamine, [(2-2-chlorophenyl)-2-(methylamino)-cyclohexanone]]
[4]
  coordination: improved coordination
  coping with transitions: able to cope with transitions without the aid of transitional rituals
  dependence on transitional objects: decreased to the rare occasion
  hallucinations: complete remission
  hoarding behavior: ceased
  motion sickness: no more motion sickness
  night sweats: no longer complains of night sweats
  physical well-being: much improvement
  sleep: improved greatly
  speech: improved with much greater regularity in coherence, tempo, volume, and clarity
  thirst on awakening: no longer awakens extremely thirsty
[4]; except the last few days of the ketamine cycle
  delusions: subsided
[4]; returns on occasion the few days prior to next administration
  aggression: nearly disappeared
[4]; subject's report
  dreams: “good dreams” have replaced their “bad dreams.”
[4]; child, with seroquel 225 mg and lithium 600 mg
  overall response after the use of ketamine: quite notable changes in body temperature, speech, levels of fear, sleep, attention, aggression, and psychosis/delusions
[5]; dose of ketamine
  dose at which mild adverse effects (dysphoria and/or hallucinations, "ketamine dreams") can occur: greater than 50 mg
[5]; total dose intranasally
  dose usually required for mild adverse effects (dysphoria and/or hallucinations): greater than 100 mg

— patent US20120225949A1, “COMPOSITIONS AND METHODS FOR TREATING BIPOLAR DISORDER” (priority 2009, published 2012)
